Measured values as given in EP4198025A1, “BENZIMIDAZOLE DERIVATIVES FOR THE TREATMENT AND PROPHYLAXIS OF INFECTIOUS DISEASES” (Eberhard Karls Universität Tübingen Medizinische Fakultät, priority 2021, dated 2023).
Read-outs that look alike come from different tables or passages of the source.

Columns and labels:
[1] = Solubility estimate based on turbidity (OD600nm); assay type: physicochemical
Excerpt: The activity in the primary assay is distinguished into influence on SurA (SurA inhibition = +; no SurA inhibiton = 0) or interference with Luciferase per se (no influence on Luc activity = 0; enhances Luc activity = +; reduces Luc activity = -).

SurA [2] = biological target: T1, SurA (Escherichia coli, UniProt P0ABZ6); assay type: biochemical, E. coli; parameters: key to primary assay SurA: SurA inhibition = +; no SurA inhibiton = 0
Excerpt: The biological function of SurA is to bind and to keep outer membrane proteins that have reached the periplasm in an unfolded but folding-competent state. The inventors' assay is based on this interaction and uses firefly Luciferase (fLuc) as a non-native substrate. […] This is exploited in the assay (Figure 3). The loss of tertiary structure of fLuc leads to the exposure of binding sites for SurA. It is known that SurA binds selectively to a special group of substrates. These substrates have in common the specific patterns of hydrophobic amino acids that are highly enriched in the beta strands of integral outer membrane proteins. These motifs are present in OMPs of all Gram-negative bacteria and in fLuc as well. Upon mild heat treatment of fLuc and its subsequent partial unfolding, fLuc is accepted as a substrate by SurA. Of note, these intermediates served as reporter substrates to determine the activity of a cytoplasmic folding chaperone. […] This interaction remains stable upon temperature reduction. Next, the temperature of the assay is reduced to room temperature and luciferase activity is subsequently measured by addition of Luciferin and ATP. In conditions without SurA, fLuc will refold into its active conformation resulting in a luminescence signal. […] In the case of presence of a SurA inhibitor (Figure 3 B), fLuc will adopt an active conformation resulting in an increased luminescence signal compared to conditions without SurA inhibition.
In short, the Luciferase based SurA activity assay was performed in SurA Activity Assay Buffer (40 mM HEPES pH 7.4, 20 mM MgSO4, 0.5 g/l BSA). SurA aliquots were thawn at RT, activated by mild heat treatment and cooled down to RT for 10 min. SurA concentration was adjusted to 1.6 µM in Activity Assay Buffer (protein solution). […] Subsequently, the assay plate was cooled for 5 min at 4°C followed by 10 min incubation at RT prior to luminescence measurement. Luminescence was measured in a TECAN infinite M200 pro plate reader for each well individually after injection of 10 µl Solution A.

firefly Luciferase = firefly Luciferase (Photinus pyralis, UniProt P08659); assay: Luciferase interference deselection assay (D1) at the ELF; assay type: biochemical
Method: The confirmed actives of ELF program ELFSC17_02 were tested as serial dilutions in the primary assay and deselection assay to generate dose response curves (DRCs). The serial dilutions consisted of 7 equidistant concentration steps (20 µM to 27.4 nM) and were tested in the primary and in the deselection assay in duplo (n=2) in 1536-well format. […] For the luciferase interference deselection assay in DRC-format, luciferase was left out in the Max effect wells, mimicking a 100% effect situation and resulting in a decreased signal. Compounds showing a signal decrease larger than 5 times the standard deviation (Z-score > 5) were identified as luciferase inducer. […] The ActivityBase application (IDBS) was used to analyze the data and to calculate quality parameters like Z-prime and Signal to Background ratio (S/B). For all compounds the % effect was calculated for all seven concentrations. ActivityBase was also used to calculate the pEC50 and Hill Slope. […] For compounds where no curve was fitted but reached >50% effect at 20 µM the Fit_Max was locked at 100% effect. For compounds where no curve was fitted but reached 100% effect at 20 µM and descended to <50% at 27 nM the Fit_Min was locked at 0%.

Luciferase = Luciferase (Photinus pyralis, UniProt P08659); assay: Primary assay buffer control without SurA: interference with Luciferase per se; assay type: biochemical, firefly; parameters: key: no influence on Luc activity = 0; enhances Luc activity = +; reduces Luc activity = -
Method: In short, the Luciferase based SurA activity assay was performed in SurA Activity Assay Buffer (40 mM HEPES pH 7.4, 20 mM MgSO4, 0.5 g/l BSA). SurA aliquots were thawn at RT, activated by mild heat treatment and cooled down to RT for 10 min. SurA concentration was adjusted to 1.6 µM in Activity Assay Buffer (protein solution). Solution A containing 10 mM ATP as well as 0.3 mM Luciferin (Promega Beetle Luciferin, Potassium Salt) in water was prepared. Luciferase working solution was prepared by diluting 1 ml Luciferase working stock (100 nM) with 9 ml assay buffer. 33 µl of the protein solution were added to every 2nd row of a well of a 384-well PS, white, flat bottom plate. […] Subsequently, 2 µl of compound in DMSO were added in quadruplicates (4 wells each of protein solution and buffer controls). These compound solutions could contain either various compounds or different dilutions of the same compound allowing screening inhibitor activity in a dose dependent manner. After compound addition, plates were incubated 15 min at RT. After this incubation, 5 µl of Luciferase working solution were added to each well. […] Subsequently, the assay plate was cooled for 5 min at 4°C followed by 10 min incubation at RT prior to luminescence measurement. Luminescence was measured in a TECAN infinite M200 pro plate reader for each well individually after injection of 10 µl Solution A. […]

E. coli ATCC 25922 = assay: Minimal inhibitory concentration assay / Vancomycin sensitizer MIC assay; assay type: cell-based; settings: Escherichia coli, ATCC25922
Excerpt: The intended effect of a SurA inhibitor should be the induction of a disturbance of the outer membrane composition resulting in an increased susceptibility to antibiotic treatment. Of note, Vancomycin is typically not used to treat infections with Gram-negative bacteria, because it is excluded by the OM and not efficient at concentrations that could be achieved in patients. However, at appropriate dosing in vitro it can be used to detect outer membrane defects. For determining a potential sensitizing effect of Vancomycin treatment, the inventors first tested whether the compounds at hand were bactericidal per se. Therefore, the inventors performed a minimal inhibitory concentration (MIC) assay. To this end, 5 ml overnight cultures of E. coli BW25113 (Keio-Collection reference strain), E. coli JW2496-3 (Keio-Collection single gene knockout for bamB, which suffers from decreased outer membrane integrity) and E. coli ATCC 25922 (a reference strain recommended for antibiotic susceptibility testing) were grown in Mueller Hinton Broth, Cation adjusted (MHB-II). […] After o/n incubation, bacterial growth was quantified by measuring the optical density at 600 nm wavelength in a multiplate reader. […] Of note, the bactericidal effect of Vancomycin was assessed similarly for each test strain using Vancomycin concentrations ranging from 512 - 0.25 mg/ml. […]

SurA [3] = biological target: T1, SurA; assay: biochemical; assay type: binding, E. coli
Method: His-tagged SurA was labeled with the Monolith His-Tag Labeling Kit RED-tris-NTA (Nanotemper) according to the manufacturer's instructions.
Microscale thermophoresis measurements were performed in 40 mM HEPES pH 7.4, 0.05 % Tween-20 at 25°C with a Monolith NT.115 (NanoTemper) in standard capillaries.

SurA [4] = biological target: T1, SurA; assay type: binding, E. coli; parameters: key to nanoDSF pH 5 Ti#1 / nanoDSF pH 5 Ti#2 / nanoDSF pH 7.4 Ti#1 / nanoDSF pH 7.4 Ti#2: An increase of the inflection points in the nanoDSF experiments is indicated by (+); a decrease by (-); no changes with (none); ambiguity with a question mark (?)
Method: To this end, 5 µl of a 2 mM compound solution in DMSO were mixed with 95 µl of a 20 µM SurA solution. Technical triplicate measurements were performed on a Prometheus system (NanoTemper).

HepG2 cells = assay: Cytotoxicity assay, LDH release; assay type: cell-based; settings: 500 µM compound
Method: Cell cytotoxicity was evaluated monitoring the LDH release from HepG2 cells using the CytoTox 96® Non-Radio Cytotoxicity Assay (Promega) according to the manufacturer's instructions. […] After incubation, 25 µl were transferred into a fresh 96-well flat clear bottom plate and mixed with 25 µl CytoTox 96® Reagent. LDH release reactions were incubated 30 min at RT in the dark and 25 µl Stop Solution were added. LDH release was measured at 490 nm in a multiplate reader.

SurA [5] = biological target: T1, SurA; assay: biochemical; assay type: biochemical, E. coli
Excerpt: The biological function of SurA is to bind and to keep outer membrane proteins that have reached the periplasm in an unfolded but folding-competent state. The inventors' assay is based on this interaction and uses firefly Luciferase (fLuc) as a non-native substrate. […] The loss of tertiary structure of fLuc leads to the exposure of binding sites for SurA. It is known that SurA binds selectively to a special group of substrates. These substrates have in common the specific patterns of hydrophobic amino acids that are highly enriched in the beta strands of integral outer membrane proteins. These motifs are present in OMPs of all Gram-negative bacteria and in fLuc as well. Upon mild heat treatment of fLuc and its subsequent partial unfolding, fLuc is accepted as a substrate by SurA. Of note, these intermediates served as reporter substrates to determine the activity of a cytoplasmic folding chaperone. […] This interaction remains stable upon temperature reduction. Next, the temperature of the assay is reduced to room temperature and luciferase activity is subsequently measured by addition of Luciferin and ATP. In conditions without SurA, fLuc will refold into its active conformation resulting in a luminescence signal.
Of note, the SurA activity assay was performed similar at the ELF but with optimizations in regard of the higher throughput including the change of the plate format to 1536-wells. The SurA activity assay performed at the ELF contained the following steps (adapted from the QHL report provided by the ELF). First, SurA was thawed at RT and heat activated in a water bath. Next, the vial was taken out of the water bath and cooled down to RT for 30 min @ bench. […] Noteworthy, the SurA solution was kept on ice. 15 nL of 4 mM compound in DMSO were added to columns 9-48 with Echo acoustic nano-dispenser (ECHO). Additionally, 15 nL 100% DMSO were transferred to columns 1-8 with ECHO. […] The plate was spun for 60 seconds at 1000 rpm to ensure proper fluid localization at the bottom of the wells. […] Again, the plate was centrifuged for 60 seconds at 1000 rpm. […] To allow refolding of the luciferase, the plate was incubated 30 minutes at RT.

SurA [6] = biological target: T1, SurA; assay type: binding, E. coli; parameters: key: An increase of the inflection points in the nanoDSF experiments is indicated by (+); a decrease by (-); no changes with (none); ambiguity with a question mark (?); settings: 100 µM compound, 2 µM SurA, 40 mM HEPES pH 7.4
Method: Nano Differential Scanning Fluorimetry (nanoDSF) measurements of the QHL (qualified hit list) compounds provided by the ELF were performed on a Tycho system (NanoTemper).

T1 sequence (P0ABZ6 21-428): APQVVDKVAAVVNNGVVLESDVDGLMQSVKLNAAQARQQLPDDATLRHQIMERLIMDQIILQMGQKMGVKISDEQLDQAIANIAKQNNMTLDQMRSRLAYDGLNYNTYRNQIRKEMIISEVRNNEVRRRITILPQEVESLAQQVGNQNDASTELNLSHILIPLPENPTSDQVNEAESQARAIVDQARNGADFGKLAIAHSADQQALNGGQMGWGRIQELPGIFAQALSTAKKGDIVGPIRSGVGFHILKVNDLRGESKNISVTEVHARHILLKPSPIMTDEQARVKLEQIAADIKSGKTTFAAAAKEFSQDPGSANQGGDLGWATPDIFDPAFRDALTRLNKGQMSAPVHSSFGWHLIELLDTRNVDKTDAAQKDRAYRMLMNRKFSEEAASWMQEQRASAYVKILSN
Sequence of firefly Luciferase (P08659 whole entry): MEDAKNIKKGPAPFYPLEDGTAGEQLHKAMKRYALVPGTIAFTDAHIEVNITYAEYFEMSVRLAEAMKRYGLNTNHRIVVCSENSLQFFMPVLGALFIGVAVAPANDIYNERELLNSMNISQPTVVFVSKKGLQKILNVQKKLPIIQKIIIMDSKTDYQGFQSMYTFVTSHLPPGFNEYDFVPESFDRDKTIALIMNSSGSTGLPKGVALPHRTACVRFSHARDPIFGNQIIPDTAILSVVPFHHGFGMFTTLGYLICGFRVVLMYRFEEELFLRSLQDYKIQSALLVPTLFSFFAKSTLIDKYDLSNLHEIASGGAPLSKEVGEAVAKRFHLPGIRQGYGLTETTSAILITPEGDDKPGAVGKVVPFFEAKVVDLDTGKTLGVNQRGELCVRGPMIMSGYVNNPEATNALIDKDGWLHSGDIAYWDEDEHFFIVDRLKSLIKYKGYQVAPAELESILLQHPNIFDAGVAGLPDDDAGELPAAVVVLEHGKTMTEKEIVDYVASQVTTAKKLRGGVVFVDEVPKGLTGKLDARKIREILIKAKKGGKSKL
Sequence of Luciferase (P08659 whole entry): as above

**Q.** What does the source list for CN(C)c1ccc(-c2nc3cc(NC(=O)Cn4cc5ccccc5n4)ccc3[nH]2)cc1 [QHL-24, N-(2-(4-(dimethylamino)phenyl)-1H-benzo[d]imidazol-5-yl)-2-(2H-indazol-2-yl)acetamide]?
**A.** solubility (in words) [1]: poor solubility; SurA inhibition in the Luciferase-based SurA activity assay (in words) (SurA [2]): very high SurA inhibition; Primary Assay ICmax (SurA [2]; concentration of maximum SurA inhibition, dose response up to 250 µM, resynthesized/repurchased compounds): 5 to 10 µM; primary assay SurA (SurA [2]; influence on SurA): +; IC50 (firefly Luciferase): 38 µM; Deselection (D1) plC50 (firefly Luciferase; Luciferase interference, 7 concentration steps 20 µM to 27.4 nM): 4.42; primary assay Luciferase (Luciferase): -; MIC (E. coli ATCC 25922): < 256 µg/mL; Kd (SurA [3]): 0.02 to 0.03 mM; Re-evaluation (Tuebingen) MST score (SurA [3]; re-evaluation of QHL compound remainders): inconclusive; Kd (SurA [3]; read-out: MST (Kd in mM)): 0.02 to 0.03 mM; thermal stability of SurA as detected by nanoDSF (in words) (SurA [4]): affected the thermal stability of SurA; nanoDSF pH 7.4 Ti#1 (SurA [4]; 40 mM HEPES pH 7.4, 150 NaCl): none; nanoDSF pH 7.4 Ti#2 (SurA [4]; 40 mM HEPES pH 7.4, 150 NaCl): -; nanoDSF pH 5 Ti#1 (SurA [4]; 50 mM HAc pH 5): none; nanoDSF pH 5 Ti#2 (SurA [4]; 50 mM HAc pH 5): +; CytoTox (observation in the well) (HepG2 cells): precipitate; CytoTox (HepG2 cells; LDH release, 1 h at 37°C): 7.87%; IC50 (SurA [5]): 3.55 µM; Primary assay (P1) % Effect (SurA [5]; ELF library screen, 1536-well): 151%; Primary assay (P1) Z-score (SurA [5]; ELF library screen, 1536-well): 191.97; LipE (SurA [5]; listed under calculated properties): 1.39; Re-evaluation (Tuebingen) nanoDSF (Tycho) Ti#1 (SurA [6]): none; Re-evaluation (Tuebingen) nanoDSF (Tycho) Ti#2 (SurA [6]): +
